Laboratory results taken from the NIST ThermoML archive (doi:10.1016/j.jct.2014.08.005).

Columns and labels:
[1] = Liquid, Vibrating tube method
[2] = wn = mass fraction of the nth substance listed; details: 101 kPa, Liquid, Vibrating tube method

CC(O)COC(C)COC(C)CO (configuration not stated) [2-[2-(2-hydroxypropoxy)propoxy]-1-propanol]
[1], 101 kPa
Details	mass density [kg/m3]
293.15 K	1017.5
303.15 K	1009.5
313.15 K	1001.5
323.15 K	993.4
333.15 K	985.2
343.15 K	976.9

CC(O)COC(C)COC(C)CO (configuration not stated) [2-[2-(2-hydroxypropoxy)propoxy]-1-propanol] + O
mass density [kg/m3], [2]
Details	293.15 K	303.15 K	313.15 K	323.15 K	333.15 K	343.15 K
w1 = 0.2	1019.4	1015.2	1010.2	1004.5	998.4	991.6
w1 = 0.4	1037.1	1030.1	1022.9	1015.5	1007.7	999.6
w1 = 0.6	1041.1	1033.2	1025.2	1017.2	1008.7	1000.2
w1 = 0.8	1030.7	1023.1	1015.4	1007.6	999.5	990.9
w1 = 1	1017.5	1009.5	1001.5	993.4	985.2	976.9

OCCOCCOCCO [triethylene glycol]
[1], 101.33 kPa
Details	mass density [kg/m3]
293.15 K	1124.7
303.15 K	1117
313.15 K	1109.2
323.15 K	1101.5
333.15 K	1093.7
343.15 K	1085.9
